In ChEMBL document CHEMBL4665661, “Design, synthesis, and biological activity evaluation of (-)-6-O-desmethylantofine analogues as potent anti-cancer agents” (Bioorg Med Chem, 2019):
pIC50: −log10 of the molar value. Calls of active or inactive are those of the source. The rule behind the calls is not given here.

Columns and labels:
HL-60 = test: Antiproliferative activity against human HL-60 cells after 72 hrs by MTT assay; format: functional, cell-based; conditions: HL-60, 72 h
U-118-MG = test: Antiproliferative activity against human U-118-MG cells incubated for 72 hrs by MTT assay; format: functional, cell-based
T47D = test: Antiproliferative activity against human T47D cells incubated for 72 hrs by MTT assay; format: functional, cell-based
MKN-45 = test: Antiproliferative activity against human MKN-45 cells incubated for 72 hrs by MTT assay; format: functional, cell-based
KATO III = test: Antiproliferative activity against human […] cells incubated for 72 hrs by MTT assay; format: functional, cell-based
SGC-7901 = test: Antiproliferative activity against human SGC-7901 cells incubated for 72 hrs by MTT assay; format: functional, cell-based
Bel-7402 [1] = test: Antiproliferative activity against human Bel-7402 cells incubated for 72 hrs by MTT assay; format: functional, cell-based
Huh-7 = test: Antiproliferative activity against human HuH7 cells incubated for 72 hrs by MTT assay; format: functional, cell-based
Zip177 = test: Antiproliferative activity against human […] cells incubated for 72 hrs by MTT assay; format: functional, cell-based
KB [2] = test: Antiproliferative activity against human KB cells incubated for 72 hrs by MTT assay; format: functional, cell-based
SK-OV-3 = test: Antiproliferative activity against human SK-OV-3 cells incubated for 72 hrs by MTT assay; format: functional, cell-based
HeLa = test: Antiproliferative activity against human HeLa cells incubated for 72 hrs by MTT assay; format: functional, cell-based
SJRH30 = test: Antiproliferative activity against human SJRH30 cells incubated for 72 hrs by MTT assay; format: functional, cell-based
Bel-7402 [3] = test: Antiproliferative activity against human Bel-7402 cells at 11 to 33 nM by IncuCyte zoom live cell analysis; format: functional, cell-based; conditions: dose nM 11-33
Bel-7402 [4] = test: Cell cycle arrest in human Bel-7402 cells assessed as increase in cell population at S phase at 1.2 nM by RNase A/propidium iodide staining-based flow cytometric analysis (reference value: 26.3%); format: functional
Bel-7402 [5] = test: Inhibition of DNA synthesis in human Bel-7402 cells assessed as Brdu positive cells at 0.1 uM measured after 1 hr by propidium iodide staining-based BrdU incorporation assay (reference value: 29.8%); format: functional; set-up: scale not given: the % may be the effect or the level left; conditions: time 30 min, 0.5 h
Bel-7402 [6] = test: Inhibition of DNA synthesis in human Bel-7402 cells assessed as Brdu positive cells at 1 uM measured after 1 hrs by propidium iodide staining-based BrdU incorporation assay (reference value: 29.8%); format: functional; set-up: scale not given: the % may be the effect or the level left; conditions: time 30 min, 0.5 h
Bel-7402 [7] = test: Induction of apoptosis in human Bel-7402 cells assessed as viable cells at 0.1 uM after 72 hrs by FITC-annexin V/propidium iodide-double staining based flow cytometry (reference value: 93.6%); format: functional; conditions: read-out: Activity
Bel-7402 [8] = test: Induction of apoptosis in human Bel-7402 cells assessed as early apoptotic cells at 0.1 uM after 72 hrs by FITC-annexin V/propidium iodide-double staining based flow cytometry (reference value: 0.65%); format: functional
K562 [9] = test: Antiproliferative activity against human K562 cells; format: functional, cell-based
[10] = Antiproliferative activity against drug-resistant human KB/VCR cells; format: functional, cell-based
Bel-7402 [11] = test: Cell cycle arrest in human Bel-7402 cells assessed as increase in cell population at S phase at 3.7 nM by RNase A/propidium iodide staining-based flow cytometric analysis (reference value: 26.3%); format: functional
Bel-7402 [12] = test: Cell cycle arrest in human Bel-7402 cells assessed as increase in cell population at S phase at 33 nM by RNase A/propidium iodide staining-based flow cytometric analysis (reference value: 26.3%); format: functional
Bel-7402 [13] = test: Cell cycle arrest in human Bel-7402 cells assessed as increase in cell population at S phase at 100 nM by RNase A/propidium iodide staining-based flow cytometric analysis (reference value: 26.3%); format: functional
KB [14] = test: Cell cycle arrest in human KB cells assessed as inhibition of DNA synthesis by measuring increase in cell population at S phase at 1 to 10 nM upto 12 hrs by RNase A/propidium iodide staining-based flow cytometric analysis; format: functional; conditions: dose nM 1-10, time hrs <=12
K562 [15] = test: Cell cycle arrest in drug- resistant human K562/ADR cells assessed as inhibition of DNA synthesis by measuring increase in cell population at S phase at 1 to 100 nM upto 24 hrs by RNase A/propidium iodide staining-based flow cytometric analysis; format: functional; conditions: dose nM 1-100, time hrs <=24

Q: Which results are given for `COc1cc2c3c(c4ccc(OCC#N)cc4c2cc1OC)CN1CCC[C@@H]1C3`?
A: pIC50 (HL-60): 7.36; inhibition (U-118-MG): Active; inhibition (T47D): Active; inhibition (MKN-45): Active; inhibition (KATO III): Active; inhibition (SGC-7901): Active; inhibition (Bel-7402 [1]): Active; inhibition (Huh-7): Active; inhibition (Zip177): Active; inhibition (KB [2]): Active; inhibition (SK-OV-3): Active; inhibition (HeLa): Active; inhibition (SJRH30): Active; inhibition (Bel-7402 [3]): Active; Activity (Bel-7402 [4]): 24.5%; Activity (Bel-7402 [5]): 13%; Activity (Bel-7402 [6]): 8.15%; viability at 0.1 µM (Bel-7402 [7]): 87.8%; Activity (Bel-7402 [8]): 0.78%; pIC50 (K562 [9]): 7.87; pIC50 [10]: 6.22; Activity (Bel-7402 [11]): 27%; Activity (Bel-7402 [12]): 34%; Activity (Bel-7402 [13]): 41.3%; Activity (KB [14]): Active; Activity (K562 [15]): Active
